What was measured:
HO-1 and NQO1 = HO-1 and NQO1 protein expression, H9c2; format: cell-based, rat; details: H9c2 cells, 24 h, dose-dependent
Procedure: Total protein was isolated from H9c2 cells, primary mouse cardiomyocytes, RAW264.7 cells and heart tissue using 1X RIPA buffer containing phosphatase and proteinase inhibitors at 4 °C. After measurement of the concentration, the cell lysates were separated by sodium dodecyl sulphate polyacrylamide gel electrophoresis (SDS-PAGE) and transferred to polyvinylidene fluoride (PVDF) membranes. The membranes were blocked in Tris-buffered saline-Tween 20 (TBST) buffer with 5% BSA for 1 h and incubated with primary antibodies (1:1000 dilution) overnight at 4 °C. After the membranes was washed by TBST buffer for three times, they were incubated with horseradish peroxidase (HRP)-conjugated secondary mouse or rabbit antibodies (1:3,000 dilution) at room temperature (RT) for 1.5 h and then detected by SuperEnhanced chemiluminescence (ECL) reaction reagents (GBCBIO Technologies Inc., Guangzhou, Guangdong, China). In brief, drop evenly the ECL working liquid onto the membrane at the ratio of 1 mL ECL working liquid and 10 cm^2 of membrane. After letting the membranes stand for 1-2 min, the bands of the respective proteins were detected with the exposure time of 10 ~60 s.

[1] = test system: OGD/R-induced primary mouse cardiomyocytes; assay: OGD/R-induced injury, MTT viability, primary cardiomyocytes; format: cell-based; details: 10 and 30 μM, OGD 3 h, reperfusion 18 h
Procedure: The heart was removed from the neonatal C57BL/6 mice and cut into 1 mm^3 pieces in ice […] buffer. The tissues were digested with the mixture of 0.125% trypsin (Gibco, 15090-046) and 0.1% type II collagenase (Gibco, 17101-015) 6 min at 37 °C for three times until the tissues were completely digested. The cells were harvested and seeded in a dish. After 90 min of incubation, the cell culture medium was collected and centrifuged. The centrifuged cardiomyocytes were harvested, seeded on 0.1 % gelatin-coated culture plates with DMEM containing 10% FBS and […] Brdu, and incubated in a 37°C incubator.
Cell viability was determined by MTT assays. PBA was prepared to a stock solution dissolved in dimethyl sulfoxide (DMSO). RAW264.7, H9c2 cells, primary mouse cardiomyocytes were treated with different doses of PBA, and DMSO only as control for 48 h for the toxicity. In addition, H9c2 cells or primary mouse cardiomyocytes were treated with the indicated doses of PBA, diazoxide as positive control, DMSO only as control, then cultured with or without OGD/R treatment. At the end of the experiments, MTT was added into each well at the concentration of 0.5 mg/ml, and incubated at 37 °C for 4 h. […] And the solution was measured at the absorbance of 490 nm by a spectrophotometer (Thermo Fisher Scientific, MA, USA). […]

Keap1 C23S = molecular target: T1, Keap1 C23S (Homo sapiens, UniProt Q14145, C23S); assay: ITC titration of PBA with Keap1-C23S; format: binding; details: 25 ℃
T1 construct: His (N); made in house; host or cells: E. coli BL21 (DE3)
T1 sequence (Q14145 whole entry C23S): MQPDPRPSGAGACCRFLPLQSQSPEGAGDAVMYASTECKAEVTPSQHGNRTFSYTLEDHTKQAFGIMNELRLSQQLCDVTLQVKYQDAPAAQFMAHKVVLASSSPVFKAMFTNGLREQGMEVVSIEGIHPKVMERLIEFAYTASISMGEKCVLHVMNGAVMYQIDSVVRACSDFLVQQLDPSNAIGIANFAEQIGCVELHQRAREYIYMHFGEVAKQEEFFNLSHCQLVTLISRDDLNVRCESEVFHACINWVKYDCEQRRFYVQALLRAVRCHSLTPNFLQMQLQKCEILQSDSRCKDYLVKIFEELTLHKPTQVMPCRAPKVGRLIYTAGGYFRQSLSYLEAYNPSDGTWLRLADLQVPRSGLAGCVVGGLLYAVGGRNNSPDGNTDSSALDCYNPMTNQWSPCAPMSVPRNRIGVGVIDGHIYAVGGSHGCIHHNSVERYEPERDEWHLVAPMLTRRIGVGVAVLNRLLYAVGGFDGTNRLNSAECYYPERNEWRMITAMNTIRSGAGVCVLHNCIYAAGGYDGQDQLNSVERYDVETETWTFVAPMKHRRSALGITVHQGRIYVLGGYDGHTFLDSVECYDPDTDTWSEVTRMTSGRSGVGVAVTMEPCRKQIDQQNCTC
Procedure: (§1) The Keap1 was amplified by PCR using a human cDNA library, and was subcloned into the vector pET28-TEV, which contained one tobacco etch virus (TEV) protease cleavage site at the upstream multiple cloning site. The protein was expressed in E. coli BL21 (DE3) cells and incubated at 37 °C until the OD600 value reached 0.6, using 0.2 mM isopropyl β-D-1-thiogalactopyranoside (IPTG) overnight induction at 18 °C. The cells were isolated by centrifugation, resuspended in ice-cold lysis buffer and lysed by cryogenic overpressure cell breaker at 1,200 psi. The lysates were centrifuged for 60 min at 14,000 rpm to obtain the supernatant. Gravity flow purification of Keap1 protein was obtained at room temperature using 1 mL of Ni-NTA and eluted in buffer containing 250 mM imidazole, followed by 1 mL of HiTrap QHP for the second step purification. The final protein was purified and validated by Superdex 200 10/300GL resin.
(§2) The mutant plasmid DNA was obtained by PCR. The PCR products were cleaved by DpnI restriction enzymes. The restriction endonuclease-cleaved mixture was subsequently transformed into E. coli DH5α. Colonies were evaluated by colony PCR and sequenced. The mutant plasmid was transformed into E. coli BL21 (DE3) after successful sequencing. The steps for expression and purification of all recombinants were described above.
(§3) Isothermal calorimetry (ITC) titration experiments were performed at 25 °C. WT Keap1, Keap1 mutants and PBA were dissolved in binding buffer (40 mM Tris-HCl pH 8.0, 250 mM NaCl). In a typical experiment, 60 μL of PBA (1 mM) was injected 19 times at 2-min intervals from a stirring syringe into the sample cell containing 300 μL of WT protein or mutants (30 μM). The first injection was 0.4 μL of PBA, and the subsequent 18 injections were 2 μL each time. The site-binding models were determined by using MicroCal Origin software.

ROS in RAW264.7 cells = assay: Intracellular ROS (DCFH-DA), LPS plus ATP macrophages; format: cell-based
Procedure: The fluorescent probe DCFH-DA was used to measure intracellular ROS levels. RAW264.7 cells were treated with 100 μg/mL LPS plus ATP as mentioned above. H9c2 cells underwent OGD/R. After the appropriate treatment, the cells were incubated with DCFH-DA at a concentration of 10 μM for 30 min. The cells were washed with PBS three times. A fluorescence microscope and microplate reader were used to measure the level of DCFH-DA fluorescence at the excitation wavelength of 488 nm and the emission wavelength of 525 nm.

Keap1 C77S/C434S = molecular target: T2, Keap1 C77S/C434S (Homo sapiens, UniProt Q14145, C434S/C77S); assay: ITC titration of PBA with Keap1-C77S/C434S; format: binding
T2 construct: His (N); made in house; host or cells: E. coli BL21 (DE3)
T2 sequence (Q14145 whole entry C77S/C434S): as the sequence (Q14145 whole entry C23S) above, with S23C, C77S, C434S counted along it
Procedure: as §1, §2, §3

[2] = ITC, 25 ℃, Keap1 C77S/C434S double mutant

- Kd (Keap1 C23S): 9.78 µM
- T△S (Keap1 C23S): 3.22 ± 0.00 kcal/mol
- △G (Keap1 C23S): -6.84 ± 0.00 kcal/mol
- △H (Keap1 C23S): -3.62 ± 0.241 kcal/mol
- Kd (Keap1 C77S/C434S; [2]): 38.6 µM
- T△S (Keap1 C77S/C434S; [2]): 1.11 ± 0.00 kcal/mol
- △G (Keap1 C77S/C434S; [2]): -6.03 ± 0.00 kcal/mol
- △H (Keap1 C77S/C434S; [2]): -4.92 ± 0.637 kcal/mol
- Kd weaker than that of the WT (Keap1 C77S/C434S; double mutant Cys77S/Cys434S vs WT Keap1): ~ 15 fold
SMILES: C=C(COC(=O)C=Cc1ccc(O)c(O)c1)C(O)COC1OC(CO)C(O)C(O)C1O (stereo not drawn) [PBA, pubescenoside A]
- HO-1 and NQO1 expression at the protein level (HO-1 and NQO1): increased
- protection against OGD/R induced injury (cell viability, MTT) [1]: protected
- LPS plus ATP-induced ROS (ROS in RAW264.7 cells): significantly suppress

— PMC7738871, “Covalent modification of Keap1 at Cys77 and Cys434 by pubescenoside a suppresses oxidative stress-induced NLRP3 inflammasome activation in myocardial ischemia-reperfusion injury” (Theranostics, 2021)
